PubChem BioAssay AID434987 (Southern Research Specialized Biocontainment Screening …, 2010)
The source made the active and inactive calls. No rule for the calls is given here.

Test system: M. tuberculosis H37Rv growth inhibition with meropenem
Assay: dose response, H37Rv, with and without meropenem (AID 434987);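 also: growth over 7 days at 37 °C before Alamar Blue read on day 9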
[1] = M. tuberculosis H37Rv growth inhibition, measured here: IC50 without meropenem
[2] = M. tuberculosis H37Rv growth inhibition, measured here: IC90 without meropenem
[3] = measured here: IC90 with meropenem

O=C(CNc1ccccc1Cl)Nc1cc(S(=O)(=O)N2CCOCC2)ccc1Cl
IC50: > 100 µM (inactive) | IC50 [1]: > 100 µM | IC90 [2]: > 100 µM | IC90 [3]: > 100 µM

COc1ccc(/C=N/Nc2nc(-c3ccc(C)cc3)c(NC(C)=O)s2)cc1OC
IC50: > 100 µM (inactive) | IC50 [1]: > 100 µM | IC90 [2]: > 100 µM | IC90 [3]: > 100 µM

NNC(=O)c1oc2nc(-c3ccco3)cc(-c3ccco3)c2c1N
IC50: 13.6 µM (inactive) | IC50 [1]: 23.9 µM | IC90 [2]: > 100 µM | IC90 [3]: > 100 µM

C[C@H](NC(=O)c1[nH]cnc1C(=O)Nc1ccc(Cl)cc1)C(=O)OC(C)(C)C
IC50: 10.4 µM | IC50 [1]: > 100 µM | IC90 [2]: > 100 µM | IC90 [3]: > 100 µM

Cc1ccc(C(=O)Nc2nc3ccccc3s2)s1
IC50: 43.6 µM (inactive) | IC50 [1]: > 100 µM | IC90 [2]: > 100 µM | IC90 [3]: > 100 µM

Cc1cc(C(=O)CN2C(=O)NC(C)(CC(C)C)C2=O)c(C)n1-c1ccc2c(c1)OCO2 (configuration not stated)
IC50: 70 µM (inactive) | IC50 [1]: 74.7 µM | IC90 [2]: 99.9 µM | IC90 [3]: 96.4 µM

C/C(=N\NC(=S)Nc1ccccc1C)c1ccc(O)cc1
IC50: 0.552 µM | IC50 [1]: 21.6 µM | IC90 [2]: 24.7 µM | IC90 [3]: 7.97 µM

CCc1ccc(NC(=S)Nc2ccc(S(=O)(=O)Nc3ncccn3)cc2)cc1
IC50: 61.4 µM (inactive) | IC50 [1]: > 100 µM | IC90 [2]: > 100 µM | IC90 [3]: > 100 µM

CC(C)(C)c1nn(-c2ccccc2)c2[nH]c(=O)c(CNc3ccc4c(c3)OCCO4)cc12
IC50: 91.2 µM (inactive) | IC50 [1]: 89.7 µM | IC90 [2]: > 100 µM | IC90 [3]: 99.7 µM

COc1ccc2sc(-c3ccc(N(C)C)cc3)c(C#CC(C)(C)O)c2c1
IC50: 19.8 µM | IC50 [1]: > 100 µM | IC90 [2]: > 100 µM | IC90 [3]: > 100 µM

CCOC(=O)c1sc(NC(=O)Nc2ccc(Cl)cc2)cc1C
IC50: > 100 µM (inactive) | IC50 [1]: > 100 µM | IC90 [2]: > 100 µM | IC90 [3]: > 100 µM

C=CCNC1=C(Cl)C(=O)N(c2cccc(Cl)c2Cl)C1=O
IC50: 13.9 µM | IC50 [1]: 46.5 µM | IC90 [2]: > 100 µM | IC90 [3]: 30.2 µM

Cc1ccc(Sc2c(C(=O)Nc3ccc(F)cc3F)c(C(F)(F)F)nn2C)cc1
IC50: > 100 µM (inactive) | IC50 [1]: > 100 µM | IC90 [2]: > 100 µM | IC90 [3]: > 100 µM

COc1ccc([N+](=O)[O-])cc1NC(=O)c1ccc(Br)s1
IC50: > 100 µM (inactive) | IC50 [1]: > 100 µM | IC90 [2]: > 100 µM | IC90 [3]: > 100 µM

CSc1nc(-c2ccc(Cl)cc2)nn1S(=O)(=O)c1ccccc1
IC50: 9.85 µM | IC50 [1]: > 100 µM | IC90 [2]: > 100 µM | IC90 [3]: > 100 µM

O=C(/C=C/c1cc(Br)ccc1F)OCC(=O)N1CCCC1
IC50: > 100 µM (inactive) | IC50 [1]: > 100 µM | IC90 [2]: > 100 µM | IC90 [3]: > 100 µM

CCCOc1ccc(C2Nc3cccc4cccc(c34)N2)cc1
IC50: > 100 µM (inactive) | IC50 [1]: > 100 µM | IC90 [2]: > 100 µM | IC90 [3]: > 100 µM

Cc1ccc(C(=O)NCCc2nnc3ccc(SCC(=O)Nc4ccccc4C)nn23)cc1
IC50: > 100 µM (inactive) | IC50 [1]: > 100 µM | IC90 [2]: > 100 µM | IC90 [3]: > 100 µM

CC/C(=N\NC(=O)c1ccc(N(C)C)cc1)c1ccccc1
IC50: > 100 µM (inactive) | IC50 [1]: > 100 µM | IC90 [2]: > 100 µM | IC90 [3]: > 100 µM

O=C1/C(=C/c2ccncc2)CCc2ccccc21
IC50: 16.8 µM (inactive) | IC50 [1]: 24.3 µM | IC90 [2]: 36.4 µM | IC90 [3]: 29.1 µM

c1ccc(Nc2ncnc3c2oc2ccccc23)cc1
IC50: 2 µM | IC50 [1]: > 100 µM | IC90 [2]: > 100 µM | IC90 [3]: > 100 µM

COc1ccc(OC)c2nc(-c3ccc4c(c3)OCO4)ccc12
IC50: 17.7 µM | IC50 [1]: > 100 µM | IC90 [2]: > 100 µM | IC90 [3]: > 25 µM

O=C(COc1ccccc1)Nc1cccc(-c2nnc(-c3ccccc3)o2)c1
IC50: > 100 µM (inactive) | IC50 [1]: > 100 µM | IC90 [2]: > 100 µM | IC90 [3]: > 100 µM

Cc1cccc(CSc2nnc(C)c(=O)n2N)c1
IC50: 5.94 µM (inactive) | IC50 [1]: 12.4 µM | IC90 [2]: 20.9 µM | IC90 [3]: 9.9 µM

CCCOc1ccccc1NC(=O)/C=C/C(N)=O
IC50: 13.4 µM (inactive) | IC50 [1]: 26.8 µM | IC90 [2]: 33.8 µM | IC90 [3]: 27.7 µM

S=C(NNc1ccc2ccccc2c1)NC1CCCCC1
IC50: 8.86 µM (inactive) | IC50 [1]: 20.4 µM | IC90 [2]: 46.7 µM | IC90 [3]: 41.3 µM

CCOC(=O)c1cc(-c2ccc(C)cc2)n(CCC(=O)N2CCN(c3ccccn3)CC2)c1C
IC50: 69.5 µM (inactive) | IC50 [1]: 89.4 µM | IC90 [2]: > 100 µM | IC90 [3]: > 100 µM

Cc1ccc(NC(=O)CCS(=O)(=O)c2cccc3nonc23)cc1
IC50: 16.8 µM (inactive) | IC50 [1]: 31.1 µM | IC90 [2]: > 100 µM | IC90 [3]: > 100 µM

CC1(C)Cc2c(C#N)c(SCc3ccccc3)nc(N3CCOCC3)c2CO1
IC50: > 100 µM (inactive) | IC50 [1]: > 100 µM | IC90 [2]: > 100 µM | IC90 [3]: > 100 µM

Cc1ccc(C)c(NC(=O)c2cc(-c3cccnc3)nc3ccccc23)c1
IC50: > 100 µM (inactive) | IC50 [1]: > 100 µM | IC90 [2]: > 100 µM | IC90 [3]: > 100 µM

NS(=O)(=O)c1ccc(O)c(NC(=O)c2ccc([N+](=O)[O-])o2)c1
IC50: 12.7 µM (inactive) | IC50 [1]: 27.2 µM | IC90 [2]: > 100 µM | IC90 [3]: > 100 µM

O=C(Nc1ccccc1Cl)c1csc(-c2cccnc2)n1
IC50: 23.9 µM | IC50 [1]: 82.3 µM | IC90 [2]: > 100 µM | IC90 [3]: > 100 µM

COc1ccccc1NC(=O)c1cnc(Nc2ccccc2OC)c2ccccc12
IC50: 37.2 µM | IC50 [1]: > 100 µM | IC90 [2]: > 100 µM | IC90 [3]: > 100 µM

COc1ccc(/C=C2\N=C(SC)N(c3ccccc3OC)C2=O)cc1
IC50: 18.1 µM | IC50 [1]: > 100 µM | IC90 [2]: > 100 µM | IC90 [3]: > 25 µM

Cc1nn(-c2ccccc2)c(N2CCCC2)c1/C=C1\N=C(c2ccc(F)cc2)OC1=O
IC50: 10.7 µM (inactive) | IC50 [1]: 23.4 µM | IC90 [2]: 26.8 µM | IC90 [3]: 22.9 µM

Cc1cc(C)cc(NC(=S)NN)c1
IC50: 55.5 µM (inactive) | IC50 [1]: 78.3 µM | IC90 [2]: > 100 µM | IC90 [3]: > 100 µM

Cc1cc(C(=O)CN2C(=O)NC(c3ccccc3)(c3ccccc3)C2=O)c(C)n1Cc1ccccc1
IC50: > 100 µM (inactive) | IC50 [1]: > 100 µM | IC90 [2]: > 100 µM | IC90 [3]: > 100 µM

O=C1Nc2c(ccc(Cl)c2Cl)C(=O)C1(F)c1ccccc1 (configuration not stated)
IC50: 23.7 µM | IC50 [1]: 95.6 µM | IC90 [2]: > 100 µM | IC90 [3]: 71.7 µM

Cn1c(O)c(/C=C2/C=CC=N2)c(=O)[nH]c1=O
IC50: 18.3 µM | IC50 [1]: > 100 µM | IC90 [2]: > 100 µM | IC90 [3]: > 100 µM

COc1ccccc1CNC(=O)COC(=O)C1=COCCO1
IC50: 18.5 µM | IC50 [1]: 67.9 µM | IC90 [2]: > 100 µM | IC90 [3]: > 100 µM

CCC(C)Nc1c2c(nc3c(-c4ccccc4)c(C)nn13)CCC2 (configuration not stated)
IC50: > 100 µM (inactive) | IC50 [1]: > 100 µM | IC90 [2]: > 100 µM | IC90 [3]: > 100 µM

Cc1ccc(/C=C/C(=O)OCC(=O)NC(C)c2ccccc2)o1 (configuration not stated)
IC50: > 100 µM (inactive) | IC50 [1]: > 100 µM | IC90 [2]: > 100 µM | IC90 [3]: > 100 µM

CCOc1ccc(-c2nnc(-c3cccs3)o2)cc1OCC
IC50: > 100 µM (inactive) | IC50 [1]: > 100 µM | IC90 [2]: > 100 µM | IC90 [3]: > 100 µM
